Here are results for one compound from patent US20260166016A1, “GPR139 RECEPTOR AGONIST, PREPARATION METHOD THEREFOR, AND APPLICATION THEREOF” (NEUBO APPTECH CO., LTD., priority 2022, published 2026).

Common to all, as to format: in vivo
For test [1], the system named is LPS induced mouse depression model. The experiment in a line: LPS induced mouse depression model, corticosterone level. The following applies: gavage 2.5 mg/mL at 0.1 mL/10 g twice daily Day 1-4, blood collected Day 5, FIG. 8. From the text: (§1) Mice: Male Crl: CD1 (ICR) mice; 10-14 weeks old; Weight: 35-40 g; Quantity: 40 pieces
(§2) Group 1, placebo+saline group: 10 mice; divided into 2 cages, 5 mice per cage.
(§3) Group 2, placebo+lipopolysaccharide (LPS) group: 10 mice; divided into 2 cages, 5 mice per cage.
(§4) Group 3, compound NRB181+saline group: 10 mice; divided into 2 cages, 5 mice per cage.
(§5) Group 4, compound NRB181+lipopolysaccharide (LPS) group: 10 mice; divided into 2 cages, 5 mice per cage.
(§6) 21.3.1 Preparation of placebo before experiment: 0.5% CMC sodium+1% Tween80+saline. In a clean bench, 4 tubes of 40 mL placebo were prepared using pyrogen-free centrifuge tubes and ultrapure water, totaling 160 mL, ensuring the absence of endotoxins (LPS). Sterile and endotoxin free centrifuge tubes were used to divide […] of placebo into 4 mL/tube, for a total of 30 tubes, and stored at 4° C. for future use.
LPS with a purity of >98% was required 3.2 mg of LPS was accurately weighed and dissolved in 40 mL of placebo to prepare a sterile solution of 0.08 mg/mL. After thorough mixing, the solution was divided into sterile and endotoxin-free centrifuge tubes, 4 mL per tube. The LPS solution needed for the next day was stored at 4° C. (3 tubes), while the rest was frozen at −20° C. for future use. […]

Another test deals with acutely restrained mice. The experiment in a line: Acute restraint mouse stress model, plasma corticosterone (ELISA). Conditions: male C57BL/6J mice, gavage 1, 5, 25 mg/kg, 30 minutes after administration and 3 hours of acute restraint, dose-dependent, FIG. 1. As for the experimental part: Mouse: Male C57BL/6J; 8 weeks old; Weight: 20-25 g; Quantity: 40 pieces
Group 1, acute restraint+placebo group, 10 mice; the mice were divided into 2 cages, 5 mice per cage. On the morning of the day of the experiment, the mice in this group were subjected to acute restraint, during which they were fasted and deprived of water.
Group 2, acute restraint+low-dose of compound NRB181 group (1 mg/kg), 10 mice; the mice were divided into 2 cages, 5 mice per cage. On the morning of the day of the experiment, the mice in this group were subjected to acute restraint, during which they were fasted and deprived of water.
Group 3, acute restraint+moderate-dose of compound NRB181 group (5 mg/kg), 10 mice; the mice were divided into 2 cages, 5 mice per cage. On the morning of the day of the experiment, the mice in this group were subjected to acute restraint, during which they were fasted and deprived of water.
Group 4, acute restraint+high-dose of compound NRB181 group (25 mg/kg), 10 mice; the mice were divided into 2 cages, 5 mice per cage. On the morning of the day of the experiment, the mice in this group were subjected to acute restraint, during which they were fasted and deprived of water.
18.3.1 On the day before the experiment, a placebo was prepared: 1 mL of 100% DMSO and 9 mL of formula x solution was added. […]
A general note: In an ELISA, binding on a coated surface is turned into a signal by an enzyme label.

The subject of test [2] is LPS induced mouse depression model. The experiment in a line: LPS induced mouse depression model, Open Field Test. Conditions: gavage 2.5 mg/mL at 0.1 mL/10 g twice daily Day 1-4, test 6 hours after injection, FIGS. 6 and 7.
Text: as §1, §2, §3, §4, §5, §6
LPS with a purity of >98% was required 3.2 mg of LPS was accurately weighed and dissolved in 40 mL of placebo to prepare a sterile solution of 0.08 mg/mL. […]
21.3.13 On the afternoon of the Day 4 of the experiment, 6 hours after mice in Group 1 were injected with saline, an Open Field Test was conducted on each group starting from Group 1. Relevant parameters were recorded, and then the mice in each group were returned to their respective home cages.

Molecules are shown by their SMILES.

In the case of `C[C@H](NC(=O)CNC(=O)c1cc(Cl)ccn1)c1c(F)cccc1F` [NRB181], the entries for the “expression level of corticosterone” value (in test [1]; with acutely restrained mice) were “significantly reduce the expression level of corticosterone” and “significantly reduced”, respectively. Besides, in test [2], the “activity of mice in the Open Field Test (number of line crossings, total distance traveled)” value was “significantly increased the activity”.
